Experiment [1] deals with T1, HCV NS5B polymerase 1a-H77 (Hepatitis C virus genotype 1a, UniProt P27958).
T1 construct: six-histidine tag; made in house; host or cells: E. coli
Description: biochemical. Also on record: species or system HCV genotype 1a. The following applies: enzyme, strain 1a H77; read-out: HCV Polymerase Strain 1a H77 IC50. In short, it runs like this: (§1)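 Incorporation of [3H]UTP (0.284 μM), alongside 20 μM each CTP and ATP, into RNA copied from a 5 nM 2.1 kb genotype 1b negative-strand template was measured after 3 h at 30° C using purified His-tagged NS5B truncated at residue 570. Product was spermine-precipitated, filtered and scintillation-counted; nonlinear regression gave IC50.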

The target of experiment [2] is T2, HCV NS5B polymerase 1a-H77-C316Y (Hepatitis C virus genotype 1a, UniProt P27958, C2736Y).
T2 construct: six-histidine tag; made in house; host or cells: E. coli
T2 sequence (P27958 2421-2990 C2736Y): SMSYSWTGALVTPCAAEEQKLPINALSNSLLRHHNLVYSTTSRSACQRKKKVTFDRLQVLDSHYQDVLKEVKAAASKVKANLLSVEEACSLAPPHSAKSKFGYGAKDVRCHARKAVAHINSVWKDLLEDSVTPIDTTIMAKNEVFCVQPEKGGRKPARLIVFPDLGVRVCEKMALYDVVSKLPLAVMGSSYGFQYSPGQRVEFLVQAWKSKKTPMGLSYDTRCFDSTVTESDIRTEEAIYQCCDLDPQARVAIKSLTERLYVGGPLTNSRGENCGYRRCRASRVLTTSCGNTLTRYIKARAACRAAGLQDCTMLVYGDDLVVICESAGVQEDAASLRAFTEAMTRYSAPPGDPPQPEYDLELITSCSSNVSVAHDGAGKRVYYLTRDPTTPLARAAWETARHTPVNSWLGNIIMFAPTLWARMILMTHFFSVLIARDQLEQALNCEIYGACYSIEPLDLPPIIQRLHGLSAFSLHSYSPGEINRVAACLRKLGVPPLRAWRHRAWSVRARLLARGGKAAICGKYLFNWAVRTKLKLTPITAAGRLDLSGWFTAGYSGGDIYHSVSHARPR
Description: biochemical. More on the design: species or system HCV genotype 1a. The essentials:
as §1

The test system of experiment [3] is HCV NS5B polymerase 1a-H77-C316Y. Description: biochemical. Also on record: species or system HCV genotype 1a. As to conditions: ratio of enzyme IC50s, 1a H77-C316Y / 1a H77. In short, it runs like this: as §1
Experiment [4] addresses T3, HCV NS5B polymerase 1b BK strain (Hepatitis C virus genotype 1b, UniProt P26663).
T3 construct: six-histidine tag; made in house; host or cells: E. coli
Description: HCV NS5B polymerase enzymatic inhibition assay, strain 1b BK. It counts as biochemical. As to conditions: enzyme, strain 1b BK; read-out: HCV Polymerase Strain 1b BK IC50. In short, it runs like this: as §1

Experiment [5] concerns HCV 1a-H77 subgenomic replicon. Description: microbe, parasite or virus in culture. The experiment is classed as cell-based, HCV genotype 1a. As to conditions: Hepatitis C virus, stable replicon. (Replicon systems follow genome replication, usually without infectious particles.)
The subject of experiment [6] is HCV 1b-BB7 subgenomic replicon. Description: microbe, parasite or virus in culture. The experiment is classed as cell-based, HCV genotype 1b. As to conditions: Hepatitis C virus, stable replicon.
Experiment [7] concerns chimeric replicon with 2a-J6CF-derived NS5B. Description: microbe, parasite or virus in culture. It counts as cell-based, HCV genotype 2a. As to conditions: Hepatitis C virus, read-out: 2a chimera 5% FBS EC50.
Experiment [8] concerns chimeric replicon with genotype 2b NS5B. Description: microbe, parasite or virus in culture. The following applies: Hepatitis C virus, read-out: 2b chimera 5% FBS EC50. The experiment is classed as cell-based, HCV genotype 2b.
For experiment [9], the system named is chimeric replicon with genotype 3a NS5B. Description: microbe, parasite or virus in culture. It counts as cell-based, HCV genotype 3a. The following applies: Hepatitis C virus, read-out: 3a chimera 5% FBS EC50.
The subject of experiment [10] is chimeric replicon with genotype 4a NS5B. Description: microbe, parasite or virus in culture. It counts as cell-based, HCV genotype 4a. The following applies: Hepatitis C virus, read-out: 4a chimera 5% FBS EC50.
In experiment [11] the test system is HCV 1a-H77 transient subgenomic replicon in Huh-7 derived cell line. Description: microbe, parasite or virus in culture. It counts as cell-based, HCV genotype 1a. As to conditions: Hepatitis C virus, Huh-7; transient replicon, 5% FBS; read-out: Transient Replicon 1a H77 5% FBS EC50. On the procedure: (§2) In addition to the stable replicon inhibition assays, transient replicon assays were performed. Transient replicons are identical to the 1a-H77 and 1a-H77-C316Y constructs, except they lack the Neo gene, making it impossible to establish stable cell lines. A T7 Megascript RNA synthesis kit (Ambion) was used to transcribe the HCV subgenomic RNA. The HCV RNA was then precipitated with lithium chloride according to manufacturer's instructions. The HCV subgenomic replicon RNA was transfected via electroporation into a Huh-7 derived cell line as described (Middleton T, et al. J. Virological Methods 2007; 145(2): 137-145). Transfected cells were diluted and plated in 96 well plates at 5×10^3 cells per well in DMEM. Four hours post-transfection, the wells from one plate were harvested for luciferase measurement. This plate provides a measure of the amount of translatable input RNA, and therefore transfection efficiency. To the wells of the remaining plates, a 3-fold dilution series of test compounds was added in DMSO (0.5% DMSO final concentration), and plates were incubated at 37° C., 5% CO2 in a humidified incubator for 4 days. After this period, the media was removed and the plates were washed with 100 μL phosphate-buffered saline per well. For the luciferase assay, 30 μL of Passive Lysis buffer (Promega) was added to each well, and then the plates were incubated for 15 minutes with rocking to lyse the cells. Luciferin solution (100 μL, Promega) was added to each well, and luciferase activity was measured with a Victor II luminometer (Perkin-Elmer). The EC50 values were calculated using GraphPad Prism 4 software.

The subject of experiment [12] is HCV 1a-H77-C316Y transient subgenomic replicon in Huh-7 derived cell line. Description: microbe, parasite or virus in culture. The experiment is classed as cell-based, HCV genotype 1a. The following applies: for EC50: Hepatitis C virus, Huh-7, read-out: Transient Replicon 1a H77-C316Y 5% FBS EC50; for Transient Replicon Fold Resistance C316Y/1a: ratio of transient replicon EC50s, C316Y / 1a H77. Here is the method:
as §2

Where [13] appears, read: 5% FBS, absence of human plasma, read-out: Stable Replicon 1a H77 5% FBS EC50.
[14] abbreviates: strain 1a H77, 5% FBS + 40% human plasma, read-out: 1a H77 5% FBS + 40% Human Plasma EC50.
Setting [15] is: strain 1a H77, 5% FBS, no human plasma, read-out: 1a H77 5% FBS EC50.
[16] abbreviates: strain 1a H77, 5% FBS, read-out: 1a H77 5% FBS EC50.
[17] abbreviates: strain 1b BB7, 5% FBS + 40% human plasma, read-out: 1b BB7 5% FBS + 40% Human Plasma EC50.
The mark [18] stands for this setting: strain 1b BB7, 5% FBS, no human plasma, read-out: 1b BB7 5% FBS EC50.
Setting [19] is: strain 1b BB7, 5% FBS, read-out: 1b BB7 5% FBS EC50.

Like-named read-outs stand apart in the source and are kept apart here.

T3 sequence (P26663 2420-2989): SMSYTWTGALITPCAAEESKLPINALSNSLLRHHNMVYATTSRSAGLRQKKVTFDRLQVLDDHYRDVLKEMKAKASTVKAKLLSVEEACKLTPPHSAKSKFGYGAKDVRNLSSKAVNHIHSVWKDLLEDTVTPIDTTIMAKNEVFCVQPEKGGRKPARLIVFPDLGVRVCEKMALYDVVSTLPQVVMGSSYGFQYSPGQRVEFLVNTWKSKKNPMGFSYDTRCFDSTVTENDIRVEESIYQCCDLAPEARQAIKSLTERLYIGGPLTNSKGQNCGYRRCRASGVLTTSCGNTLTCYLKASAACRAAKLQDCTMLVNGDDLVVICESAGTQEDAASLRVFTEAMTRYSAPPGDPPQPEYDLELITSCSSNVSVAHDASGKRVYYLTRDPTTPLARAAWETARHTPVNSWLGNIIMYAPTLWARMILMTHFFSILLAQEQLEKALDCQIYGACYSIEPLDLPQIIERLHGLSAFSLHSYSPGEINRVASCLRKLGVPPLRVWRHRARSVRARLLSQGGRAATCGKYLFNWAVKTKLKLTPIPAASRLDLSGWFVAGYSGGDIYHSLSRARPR
T1 sequence (P27958 2421-2990): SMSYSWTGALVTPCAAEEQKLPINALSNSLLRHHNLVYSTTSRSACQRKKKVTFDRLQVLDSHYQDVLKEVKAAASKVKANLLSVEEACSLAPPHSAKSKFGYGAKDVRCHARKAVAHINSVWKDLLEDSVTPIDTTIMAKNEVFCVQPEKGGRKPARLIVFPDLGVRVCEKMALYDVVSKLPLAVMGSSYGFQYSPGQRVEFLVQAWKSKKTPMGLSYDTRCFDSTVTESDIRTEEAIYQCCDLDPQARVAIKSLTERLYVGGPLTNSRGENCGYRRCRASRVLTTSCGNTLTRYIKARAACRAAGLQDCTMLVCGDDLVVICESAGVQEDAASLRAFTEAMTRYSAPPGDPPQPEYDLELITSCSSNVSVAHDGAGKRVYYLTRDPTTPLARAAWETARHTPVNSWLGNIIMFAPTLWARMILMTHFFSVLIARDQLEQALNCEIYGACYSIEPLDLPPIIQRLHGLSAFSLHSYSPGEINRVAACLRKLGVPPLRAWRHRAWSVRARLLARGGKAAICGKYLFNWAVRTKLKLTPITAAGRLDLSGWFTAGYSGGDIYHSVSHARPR

The IC50 is the concentration that inhibits the measured activity by half. The EC50 is the midpoint of the concentration-response curve. For `CS(=O)(=O)Nc1cc2oc(-c3ccc(F)cc3)c(-c3ncc[nH]3)c2cc1C1CC1` [Example 1, N-[5-cyclopropyl-2-(4-fluorophenyl)-3-(1H-imidazol-2-yl)-1-benzofuran-6-yl]methanesulfonamide], the IC50 in [1] stood at 0.0059 µM; in experiment [2] it was 1.8 µM; in [4] it was 0.087 µM. For the same compound, the “C316Y/1a Fold Resistance” value in experiment [3] amounted to 304 fold. The 50% effective concentration (EC50) in experiment [5] (setting [13]) amounted to 0.207 µM; in [5] (setting [14]), 4.71 µM; in experiment [5] (setting [15]), 0.207 µM; in experiment [5] (setting [16]) it was 0.207 µM; in experiment [6] (setting [17]), 0.281 µM; in [6] (setting [18]) it was 0.0182 µM. The EC50 turned out to be 0.0182 µM in experiment [6] (setting [19]); 0.223 µM in [7]; 0.219 µM in experiment [8]; 0.013 µM in [9]; 0.242 µM in experiment [10]; 0.192 µM in [11].
As for `CC(C)CN(c1cc2oc(-c3ccc(F)cc3)c(-c3ncc[nH]3)c2cc1C1CC1)S(C)(=O)=O` [Example 66, N-[5-cyclopropyl-2-(4-fluorophenyl)-3-(1H-imidazol-2-yl)-1-benzofuran-6-yl]-N-isobutylmethanesulfonamide], the IC50 came out at 0.0059 µM in experiment [1], 0.901 µM in [2] and 0.07 µM in experiment [4]. For the same compound, the “C316Y/1a Fold Resistance” value in experiment [3] turned out to be 152 fold. In addition, the EC50 was found to be 0.0598 µM in experiment [5] (setting [13]); 0.683 µM in experiment [5] (setting [14]); 0.0598 µM in [5] (setting [15]); 0.0598 µM in experiment [5] (setting [16]); 0.569 µM in experiment [6] (setting [17]); 0.0564 µM in experiment [6] (setting [18]). For the same compound, the EC50 in experiment [6] (setting [19]) amounted to 0.0564 µM; in [7] it was 0.215 µM; in [8], 0.293 µM; in [9], 0.0839 µM; in experiment [10], 0.318 µM; in experiment [11], 0.0689 µM.
In the case of `CCCN(c1cc2oc(-c3ccc(F)cc3)c(-c3ncc[nH]3)c2cc1C1CC1)S(C)(=O)=O` [Example 64, N-[5-cyclopropyl-2-(4-fluorophenyl)-3-(1H-imidazol-2-yl)-1-benzofuran-6-yl]-N-propylmethanesulfonamide], the IC50 came out at 0.0053 µM in experiment [1], 0.18 µM in experiment [2] and 0.029 µM in experiment [4]. Moreover, the “C316Y/1a Fold Resistance” value in [3] is listed as 34 fold. Further, the half-maximal effective concentration (EC50) is 0.0243 µM in experiment [5] (setting [13]); 0.267 µM in [5] (setting [14]); 0.0243 µM in experiment [5] (setting [15]); 0.0243 µM in experiment [5] (setting [16]); 0.11 µM in [6] (setting [17]); 0.012 µM in experiment [6] (setting [18]). Besides, the EC50 in experiment [6] (setting [19]) amounted to 0.012 µM; in experiment [7], 0.0579 µM; in experiment [8] it was 0.0674 µM; in experiment [9], 0.0016 µM; in experiment [10], 0.125 µM; in [11], 0.0202 µM.
`CS(=O)(=O)N(CCCC(=O)O)c1cc2oc(-c3ccc(F)cc3)c(C3=NOCCN3)c2cc1C1CC1` [Example 135, 4-{[5-cyclopropyl-3-(5,6-dihydro-4H-1,2,4-oxadiazin-3-yl)-2-(4-fluorophenyl)-1-benzofuran-6-yl](methylsulfonyl)amino}butanoic acid]: the IC50 in experiment [1] stood at 0.0039 µM; in experiment [2] it was 0.041 µM; in experiment [4], 0.028 µM. Besides, in [3], the “C316Y/1a Fold Resistance” value was found to be 11 fold. The EC50 in experiment [5] (setting [13]) came out at 0.969 µM; in [5] (setting [14]), 7.91 µM; in experiment [5] (setting [15]), 0.969 µM; in experiment [5] (setting [16]), 0.969 µM; in experiment [6] (setting [17]), 5.52 µM; in experiment [6] (setting [18]), 0.783 µM. The EC50 in experiment [6] (setting [19]) stood at 0.783 µM; in experiment [11] it was 0.372 µM; in experiment [12] it was 3.04 µM. Moreover, the “Transient Replicon Fold Resistance C316Y/1a” value in [12] is recorded as 8 fold.
With `COc1ccc(CN(c2cc3oc(-c4ccc(F)cc4)c(C4=NOC(C)N4)c3cc2C2CC2)S(C)(=O)=O)cc1` (stereo not drawn) [Example 151, N-[5-cyclopropyl-2-(4-fluorophenyl)-3-(5-methyl-4,5-dihydro-1,2,4-oxadiazol-3-yl)-1-benzofuran-6-yl]-N-(4-methoxybenzyl)methanesulfonamide], the values for the IC50 in experiment [1], in experiment [2] and in experiment [4] were 0.009 µM, 0.102 µM and 0.048 µM, respectively. Also, the “C316Y/1a Fold Resistance” value in experiment [3] came to 11 fold. For the same compound, the EC50 in [5] (setting [13]) is 0.119 µM; in experiment [5] (setting [14]), 2.28 µM; in experiment [5] (setting [15]), 0.119 µM; in experiment [5] (setting [16]), 0.119 µM; in experiment [6] (setting [17]) it was 1.5 µM; in experiment [6] (setting [18]), 0.03 µM. Besides, the 50% effective concentration (EC50) stood at 0.03 µM in experiment [6] (setting [19]), 0.0332 µM in [11] and 2.93 µM in experiment [12]. Also, the “Transient Replicon Fold Resistance C316Y/1a” value in experiment [12] was determined as 88 fold.
On to `CC(C)CCN(c1cc2oc(-c3ccc(F)cc3)c(C3=NOC(C)N3)c2cc1C1CC1)S(C)(=O)=O` (stereo not drawn) [Example 14, N-[5-cyclopropyl-2-(4-fluorophenyl)-3-(5-methyl-4,5-dihydro-1,2,4-oxadiazol-3-yl)-1-benzofuran-6-yl]-N-(3-methylbutyl)methanesulfonamide], for which the IC50 amounted to 0.0085 µM in experiment [1], 0.07 µM in [2] and 0.035 µM in [4]. The “C316Y/1a Fold Resistance” value in [3] was 8 fold. The EC50 in experiment [5] (setting [13]) was determined as 0.0243 µM; in experiment [5] (setting [14]), 0.805 µM; in [5] (setting [15]), 0.0243 µM; in experiment [5] (setting [16]), 0.0243 µM; in [6] (setting [17]), 1.06 µM; in experiment [6] (setting [18]) it was 0.0935 µM. In addition, the concentration for a half-maximal effect (EC50) in [6] (setting [19]) was 0.0935 µM; in experiment [11], 0.0281 µM; in experiment [12] it was 0.152 µM. Moreover, the “Transient Replicon Fold Resistance C316Y/1a” value in [12] is 5 fold.
For the compound `C[S+]([O-])c1ccc(-c2ncc(CN(c3ccc4c(-c5ncc[nH]5)c(-c5ccccc5)oc4c3)S(C)(=O)=O)s2)cc1` (stereo not drawn) [Example 24, N-[3-(1H-imidazol-2-yl)-2-phenyl-1-benzofuran-6-yl]-N-({2-[4-(methylsulfinyl)phenyl]-1,3-thiazol-5-yl}methyl)methanesulfonamide], the IC50 is 0.0069 µM in [1], 0.036 µM in [2] and 0.018 µM in experiment [4]. The “C316Y/1a Fold Resistance” value in [3] was determined as 5 fold. For the same compound, the EC50 in [5] (setting [13]) came out at 0.157 µM; in experiment [5] (setting [14]) it was 10 µM; in experiment [5] (setting [15]), 0.157 µM; in experiment [5] (setting [16]), 0.157 µM; in experiment [6] (setting [17]), 3.85 µM; in experiment [6] (setting [18]), 0.0124 µM. Besides, the EC50 stood at 0.0124 µM in experiment [6] (setting [19]); 0.206 µM in experiment [7]; 0.193 µM in [8]; 0.0054 µM in experiment [9]; 0.362 µM in experiment [10].
